Assay results from the kinase profiling compilation of Christmann-Franck et al. (2016).

Legend:
Assay in all cases: KINOMEscan competition binding
Settings in all cases: compound 1.0 µM
[1] = biological target: FGFR4 (human) (UniProt P22455)
[2] = tested on: KIT (human), P10721 [V559D]
[3] = biological target: CDK5 (human) (UniProt Q00535)
[4] = biological target: TNK1 (human) (UniProt Q13470)
[5] = biological target: CDK2 (human) (UniProt P24941)
[6] = biological target: ULK2 (human) (UniProt Q8IYT8)
[7] = biological target: CDK4 CCND1 (human) (UniProt P11802+P24385)
[8] = biological target: JAK2 JH1 catalytic (human) (UniProt O60674)
[9] = biological target: MAP4K4 (human) (UniProt O95819)
[10] = biological target: PRKD3 (human) (UniProt O94806)
[11] = biological target: RIPK2 (human) (UniProt O43353)
[12] = biological target: PRKD2 (human) (UniProt Q9BZL6)
[13] = tested on: RET (human), P07949 [M918T]
[14] = biological target: DYRK1B (human) (UniProt Q9Y463)
[15] = tested on: RET (human), P07949 [V804M]
[16] = biological target: CAMKK2 (human) (UniProt Q96RR4)
[17] = biological target: PTK2 (human) (UniProt Q05397)
[18] = tested on: EGFR (human), P00533 [746-750 del]
[19] = biological target: NTRK2 (human) (UniProt Q16620)
[20] = biological target: LATS1 (human) (UniProt O95835)
[21] = biological target: RIOK1 (human) (UniProt Q9BRS2)
[22] = tested on: EGFR (human), P00533 [752-759 del]
[23] = biological target: WEE2 (human) (UniProt P0C1S8)
[24] = biological target: EGFR (human) (UniProt P00533)
[25] = biological target: STK39 (human) (UniProt Q9UEW8)
[26] = biological target: CLK3 (human) (UniProt P49761)
[27] = biological target: STK32A (human) (UniProt Q8WU08)
[28] = biological target: RIPK4 (human) (UniProt P57078)
[29] = biological target: MAP2K7 (human) (UniProt O14733)
[30] = biological target: PAK1 (human) (UniProt Q13153)
[31] = biological target: CAMKK1 (human) (UniProt Q8N5S9)
[32] = biological target: MAP3K10 (human) (UniProt Q02779)
[33] = biological target: IRAK1 (human) (UniProt P51617)
[34] = biological target: EPHA7 (human) (UniProt Q15375)
[35] = tested on: EGFR (human), P00533 [P753S; 747-752 del]
[36] = biological target: RPS6KA4 KD1 (human) (UniProt O75676)
[37] = biological target: INSR (human) (UniProt P06213)
[38] = biological target: HIPK4 (human) (UniProt Q8NE63)
[39] = biological target: NEK6 (human) (UniProt Q9HC98)
[40] = biological target: PRKX (human) (UniProt P51817)
[41] = biological target: CaMK1 (human) (UniProt Q14012)
[42] = biological target: DYRK1A (human) (UniProt Q13627)
[43] = biological target: FLT1 (human) (UniProt P17948)

Sequence of STK32A (human) (Q8WU08 whole entry, looked up): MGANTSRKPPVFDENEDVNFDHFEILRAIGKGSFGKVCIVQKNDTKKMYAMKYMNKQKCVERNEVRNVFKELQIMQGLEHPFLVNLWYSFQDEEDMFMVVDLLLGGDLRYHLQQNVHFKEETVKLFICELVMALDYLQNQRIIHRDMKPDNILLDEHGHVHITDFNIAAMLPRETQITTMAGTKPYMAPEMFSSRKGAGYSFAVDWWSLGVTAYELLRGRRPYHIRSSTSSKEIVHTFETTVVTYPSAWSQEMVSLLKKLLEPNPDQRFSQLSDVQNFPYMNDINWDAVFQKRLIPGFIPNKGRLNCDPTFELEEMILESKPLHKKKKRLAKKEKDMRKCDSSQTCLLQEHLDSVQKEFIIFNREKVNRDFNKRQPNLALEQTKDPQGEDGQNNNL
Sequence of WEE2 (human) (P0C1S8 whole entry, looked up): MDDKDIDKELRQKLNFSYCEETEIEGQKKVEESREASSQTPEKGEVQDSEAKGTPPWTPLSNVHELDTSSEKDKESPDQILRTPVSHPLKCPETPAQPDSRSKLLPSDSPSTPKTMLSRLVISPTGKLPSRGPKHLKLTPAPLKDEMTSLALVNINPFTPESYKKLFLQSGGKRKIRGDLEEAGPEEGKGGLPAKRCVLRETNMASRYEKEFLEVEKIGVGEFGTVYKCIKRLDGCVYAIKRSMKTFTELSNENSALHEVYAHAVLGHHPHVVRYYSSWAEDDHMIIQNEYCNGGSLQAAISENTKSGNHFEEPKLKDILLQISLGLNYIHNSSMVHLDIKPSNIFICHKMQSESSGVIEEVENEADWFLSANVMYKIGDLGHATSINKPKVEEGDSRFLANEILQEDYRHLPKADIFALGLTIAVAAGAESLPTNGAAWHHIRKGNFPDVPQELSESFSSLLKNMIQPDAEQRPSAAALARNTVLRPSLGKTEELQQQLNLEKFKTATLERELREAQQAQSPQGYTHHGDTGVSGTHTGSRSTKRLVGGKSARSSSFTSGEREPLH
Sequence of FGFR4 (human) (P22455 whole entry, looked up): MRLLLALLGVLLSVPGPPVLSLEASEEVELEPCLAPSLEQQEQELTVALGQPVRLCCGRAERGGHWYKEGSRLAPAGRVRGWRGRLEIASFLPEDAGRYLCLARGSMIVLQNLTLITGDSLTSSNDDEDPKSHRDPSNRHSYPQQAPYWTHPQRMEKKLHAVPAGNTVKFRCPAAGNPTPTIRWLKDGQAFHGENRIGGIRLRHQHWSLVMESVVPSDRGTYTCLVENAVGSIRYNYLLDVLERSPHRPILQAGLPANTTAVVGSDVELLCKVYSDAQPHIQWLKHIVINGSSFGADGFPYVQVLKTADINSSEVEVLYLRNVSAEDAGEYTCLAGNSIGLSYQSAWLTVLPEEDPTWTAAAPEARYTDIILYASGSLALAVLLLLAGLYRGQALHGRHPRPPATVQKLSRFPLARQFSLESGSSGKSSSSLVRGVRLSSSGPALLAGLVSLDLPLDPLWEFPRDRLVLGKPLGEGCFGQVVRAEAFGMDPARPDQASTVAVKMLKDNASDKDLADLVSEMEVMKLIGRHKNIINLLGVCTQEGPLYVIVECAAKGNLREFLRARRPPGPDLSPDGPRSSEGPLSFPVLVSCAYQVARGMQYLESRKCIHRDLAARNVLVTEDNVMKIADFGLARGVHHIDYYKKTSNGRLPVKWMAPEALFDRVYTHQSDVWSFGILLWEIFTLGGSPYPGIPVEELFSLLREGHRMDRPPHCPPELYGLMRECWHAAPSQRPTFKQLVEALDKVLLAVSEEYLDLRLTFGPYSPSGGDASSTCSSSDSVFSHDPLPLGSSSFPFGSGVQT
Sequence of LATS1 (human) (O95835 whole entry, looked up): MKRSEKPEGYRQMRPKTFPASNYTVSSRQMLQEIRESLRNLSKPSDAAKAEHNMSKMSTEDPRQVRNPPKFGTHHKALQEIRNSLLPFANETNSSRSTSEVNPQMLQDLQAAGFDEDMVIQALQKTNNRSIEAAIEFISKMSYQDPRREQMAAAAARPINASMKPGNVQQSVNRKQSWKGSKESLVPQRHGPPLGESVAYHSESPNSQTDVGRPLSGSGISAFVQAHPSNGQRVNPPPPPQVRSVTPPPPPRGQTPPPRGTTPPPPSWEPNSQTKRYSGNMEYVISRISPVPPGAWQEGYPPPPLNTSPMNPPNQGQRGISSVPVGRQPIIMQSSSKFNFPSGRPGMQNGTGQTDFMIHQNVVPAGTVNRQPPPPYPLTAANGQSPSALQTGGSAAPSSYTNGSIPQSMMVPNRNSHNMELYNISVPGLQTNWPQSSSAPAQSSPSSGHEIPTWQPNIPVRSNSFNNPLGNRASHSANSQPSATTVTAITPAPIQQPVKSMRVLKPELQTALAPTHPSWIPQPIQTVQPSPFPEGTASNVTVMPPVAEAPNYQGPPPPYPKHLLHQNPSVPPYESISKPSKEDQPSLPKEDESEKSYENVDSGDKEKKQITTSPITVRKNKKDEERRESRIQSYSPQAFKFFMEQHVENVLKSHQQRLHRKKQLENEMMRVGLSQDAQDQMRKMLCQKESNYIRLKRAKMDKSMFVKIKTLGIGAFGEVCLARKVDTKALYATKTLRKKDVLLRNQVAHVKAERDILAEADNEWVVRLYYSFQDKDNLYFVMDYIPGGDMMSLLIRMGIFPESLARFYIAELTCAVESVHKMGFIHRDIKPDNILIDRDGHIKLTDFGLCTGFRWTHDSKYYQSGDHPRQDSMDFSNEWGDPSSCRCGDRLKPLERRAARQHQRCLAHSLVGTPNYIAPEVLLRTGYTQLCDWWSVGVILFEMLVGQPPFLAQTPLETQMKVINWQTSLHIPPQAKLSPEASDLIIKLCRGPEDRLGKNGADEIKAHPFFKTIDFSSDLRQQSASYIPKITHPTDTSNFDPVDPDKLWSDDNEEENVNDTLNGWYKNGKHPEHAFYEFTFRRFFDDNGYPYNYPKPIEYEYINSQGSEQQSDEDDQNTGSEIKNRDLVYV
Sequence of MAP2K7 (human) (O14733 whole entry, looked up): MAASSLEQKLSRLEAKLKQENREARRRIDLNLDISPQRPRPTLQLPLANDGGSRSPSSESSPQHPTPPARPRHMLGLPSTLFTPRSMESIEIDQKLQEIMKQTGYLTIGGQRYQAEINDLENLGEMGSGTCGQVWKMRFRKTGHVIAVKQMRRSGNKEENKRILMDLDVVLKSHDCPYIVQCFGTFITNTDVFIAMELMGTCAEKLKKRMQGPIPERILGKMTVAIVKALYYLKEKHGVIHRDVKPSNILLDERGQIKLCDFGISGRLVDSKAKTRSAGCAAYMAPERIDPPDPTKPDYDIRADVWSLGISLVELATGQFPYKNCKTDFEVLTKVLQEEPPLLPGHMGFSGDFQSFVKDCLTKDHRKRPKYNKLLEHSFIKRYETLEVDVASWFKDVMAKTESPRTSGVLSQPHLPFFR
Sequence of TNK1 (human) (Q13470 whole entry, looked up): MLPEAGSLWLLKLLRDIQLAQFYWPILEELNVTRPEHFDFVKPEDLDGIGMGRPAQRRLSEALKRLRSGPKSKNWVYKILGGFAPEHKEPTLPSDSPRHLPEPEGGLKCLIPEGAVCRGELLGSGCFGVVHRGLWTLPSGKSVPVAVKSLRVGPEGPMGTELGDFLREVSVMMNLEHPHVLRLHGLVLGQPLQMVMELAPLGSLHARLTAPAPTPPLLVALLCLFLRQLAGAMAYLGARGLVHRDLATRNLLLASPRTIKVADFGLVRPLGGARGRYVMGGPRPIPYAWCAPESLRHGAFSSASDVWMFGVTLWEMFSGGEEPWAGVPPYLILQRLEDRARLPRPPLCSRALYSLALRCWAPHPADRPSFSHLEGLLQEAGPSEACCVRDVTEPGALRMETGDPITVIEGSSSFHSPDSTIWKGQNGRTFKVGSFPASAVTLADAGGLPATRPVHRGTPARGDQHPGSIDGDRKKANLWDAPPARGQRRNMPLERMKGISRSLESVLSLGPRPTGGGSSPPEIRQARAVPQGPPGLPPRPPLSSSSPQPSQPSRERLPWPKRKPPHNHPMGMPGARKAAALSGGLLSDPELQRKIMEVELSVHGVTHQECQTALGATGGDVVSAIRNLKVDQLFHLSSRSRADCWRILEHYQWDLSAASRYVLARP
Sequence of MAP3K10 (human) (Q02779 whole entry, looked up): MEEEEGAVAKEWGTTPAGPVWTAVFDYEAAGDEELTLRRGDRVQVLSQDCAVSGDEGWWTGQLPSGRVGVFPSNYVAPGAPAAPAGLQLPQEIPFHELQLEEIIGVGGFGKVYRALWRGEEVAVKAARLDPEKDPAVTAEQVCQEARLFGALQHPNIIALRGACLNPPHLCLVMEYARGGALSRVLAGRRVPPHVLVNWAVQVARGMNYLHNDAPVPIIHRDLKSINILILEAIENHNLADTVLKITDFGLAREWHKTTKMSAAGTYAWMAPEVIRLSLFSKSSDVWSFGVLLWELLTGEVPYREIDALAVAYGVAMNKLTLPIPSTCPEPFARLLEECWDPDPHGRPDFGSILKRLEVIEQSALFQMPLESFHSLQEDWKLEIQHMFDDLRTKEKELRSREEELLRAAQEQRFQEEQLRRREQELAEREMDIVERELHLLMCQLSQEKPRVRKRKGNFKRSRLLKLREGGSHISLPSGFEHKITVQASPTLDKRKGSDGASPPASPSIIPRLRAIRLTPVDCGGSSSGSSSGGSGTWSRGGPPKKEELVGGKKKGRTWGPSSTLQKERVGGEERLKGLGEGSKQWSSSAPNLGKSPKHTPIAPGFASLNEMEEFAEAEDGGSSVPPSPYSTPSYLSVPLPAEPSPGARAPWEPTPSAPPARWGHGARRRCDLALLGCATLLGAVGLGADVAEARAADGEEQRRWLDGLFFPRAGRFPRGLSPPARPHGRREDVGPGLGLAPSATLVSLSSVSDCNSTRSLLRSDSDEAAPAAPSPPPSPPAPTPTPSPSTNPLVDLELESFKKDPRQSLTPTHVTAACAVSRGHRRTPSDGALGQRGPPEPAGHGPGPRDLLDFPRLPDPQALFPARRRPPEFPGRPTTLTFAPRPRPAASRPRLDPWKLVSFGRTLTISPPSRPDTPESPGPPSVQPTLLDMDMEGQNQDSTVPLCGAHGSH

For `COCCNCCCn1c(C(=O)CF)c(-c2ccc(C)cc2)c2c(N)ncnc21`, the kinase still bound, per cent of control [1] was 100%, the kinase still bound, per cent of control [2] was 73% and the kinase still bound, per cent of control [3] was 95%. The kinase still bound, per cent of control [4] was 100%, the kinase still bound, per cent of control [5] was 83% and the kinase still bound, per cent of control [6] was 90%. For the same compound, the kinase still bound, per cent of control [7] was 98%, the kinase still bound, per cent of control [8] was 100% and the kinase still bound, per cent of control [9] was 88%. The kinase still bound, per cent of control [10] was 100%, the kinase still bound, per cent of control [11] was 39% and the kinase still bound, per cent of control [12] was 100%. It also gave a kinase still bound, per cent of control [13] of 100%, a kinase still bound, per cent of control [14] of 96% and a kinase still bound, per cent of control [15] of 100%. It also gave a kinase still bound, per cent of control [16] of 100%, a kinase still bound, per cent of control [17] of 100% and a kinase still bound, per cent of control [18] of 100%. For the same compound, the kinase still bound, per cent of control [19] was 74%, the kinase still bound, per cent of control [20] was 100% and the kinase still bound, per cent of control [21] was 69%. It also gave a kinase still bound, per cent of control [22] of 90%, a kinase still bound, per cent of control [23] of 100% and a kinase still bound, per cent of control [24] of 96%. It also gave a kinase still bound, per cent of control [25] of 100%, a kinase still bound, per cent of control [26] of 79% and a kinase still bound, per cent of control [27] of 94%. It also gave a kinase still bound, per cent of control [28] of 100%, a kinase still bound, per cent of control [29] of 78% and a kinase still bound, per cent of control [30] of 89%. For the same compound, the kinase still bound, per cent of control [31] was 100%, the kinase still bound, per cent of control [32] was 77% and the kinase still bound, per cent of control [33] was 93%. It also gave a kinase still bound, per cent of control [34] of 92%, a kinase still bound, per cent of control [35] of 100% and a kinase still bound, per cent of control [36] of 100%. It also gave a kinase still bound, per cent of control [37] of 84%, a kinase still bound, per cent of control [38] of 95% and a kinase still bound, per cent of control [39] of 100%. The kinase still bound, per cent of control [40] was 80%, the kinase still bound, per cent of control [41] was 100% and the kinase still bound, per cent of control [42] was 100%. The kinase still bound, per cent of control [43] was 96%.
